# Key:
# Experiment in all cases: biochemical
# Details in all cases: read-out: %Ctrl @ 1000nM
# S6K1 = biological target: T1, S6K1 (Homo sapiens, UniProt P23443)
# T1 construct: gene RPS6KB1
# JNK3 = biological target: T2, JNK3 (Homo sapiens, UniProt P53779)
# T2 construct: gene MAPK10
# BLK = BLK (Homo sapiens, UniProt P51451)
# EGFR = EGFR (Homo sapiens, UniProt P00533)
# GCN2(Kin.Dom.2,S808G) = biological target: T3, GCN2(Kin.Dom.2,S808G) (Homo sapiens, UniProt Q9P2K8, S808G)
# T3 construct: gene EIF2AK4
# TIE1 = TIE1 (Homo sapiens, UniProt P35590)
# RET(V804L) = RET(V804L) (Homo sapiens, UniProt P07949, V804L)
# RIOK1 = RIOK1 (Homo sapiens, UniProt Q9BRS2)
# FRK = FRK (Homo sapiens, UniProt P42685)
# BMPR1A = BMPR1A (Homo sapiens, UniProt P36894)
# RIPK1 = RIPK1 (Homo sapiens, UniProt Q13546)
# SRPK3 = SRPK3 (Homo sapiens, UniProt Q9UPE1)
# CSK = CSK (Homo sapiens, UniProt P41240)
# SGK = biological target: T4, SGK (Homo sapiens, UniProt O00141)
# T4 construct: gene SGK1
# CSNK2A1 = CSNK2A1 (Homo sapiens, UniProt P68400)
# EPHB6 = EPHB6 (Homo sapiens, UniProt O15197)
# GRK7 = GRK7 (Homo sapiens, UniProt Q8WTQ7)
# MKNK2 = MKNK2 (Homo sapiens, UniProt Q9HBH9)
# CAMKK1 = CAMKK1 (Homo sapiens, UniProt Q8N5S9)
# PIK3CA(H1047L) = PIK3CA(H1047L) (Homo sapiens, UniProt P42336, H1047L)
# BMPR1B = BMPR1B (Homo sapiens, UniProt O00238)
# CAMK1D = CAMK1D (Homo sapiens, UniProt Q8IU85)
# HCK = HCK (Homo sapiens, UniProt P08631)
# CSF1R = CSF1R (Homo sapiens, UniProt P07333)
# LKB1 = biological target: T5, LKB1 (Homo sapiens, UniProt Q15831)
# T5 construct: gene STK11
# LRRK2(G2019S) = LRRK2(G2019S) (Homo sapiens, UniProt Q5S007, G2019S)
# ERK3 = biological target: T6, ERK3 (Homo sapiens, UniProt Q16659)
# T6 construct: gene MAPK6
# MET(M1250T) = MET(M1250T) (Homo sapiens, UniProt P08581, M1250T)
# MLK2 = biological target: T7, MLK2 (Homo sapiens, UniProt Q02779)
# T7 construct: gene MAP3K10
# HIPK3 = HIPK3 (Homo sapiens, UniProt Q9H422)
# PDGFRB = PDGFRB (Homo sapiens, UniProt P09619)
# AKT2 = AKT2 (Homo sapiens, UniProt P31751)
# ERN1 = ERN1 (Homo sapiens, UniProt O75460)
# PIK3CA(M1043I) = PIK3CA(M1043I) (Homo sapiens, UniProt P42336, M1043I)
# BTK = BTK (Homo sapiens, UniProt Q06187)
# Chain of BTK (Q06187 whole entry): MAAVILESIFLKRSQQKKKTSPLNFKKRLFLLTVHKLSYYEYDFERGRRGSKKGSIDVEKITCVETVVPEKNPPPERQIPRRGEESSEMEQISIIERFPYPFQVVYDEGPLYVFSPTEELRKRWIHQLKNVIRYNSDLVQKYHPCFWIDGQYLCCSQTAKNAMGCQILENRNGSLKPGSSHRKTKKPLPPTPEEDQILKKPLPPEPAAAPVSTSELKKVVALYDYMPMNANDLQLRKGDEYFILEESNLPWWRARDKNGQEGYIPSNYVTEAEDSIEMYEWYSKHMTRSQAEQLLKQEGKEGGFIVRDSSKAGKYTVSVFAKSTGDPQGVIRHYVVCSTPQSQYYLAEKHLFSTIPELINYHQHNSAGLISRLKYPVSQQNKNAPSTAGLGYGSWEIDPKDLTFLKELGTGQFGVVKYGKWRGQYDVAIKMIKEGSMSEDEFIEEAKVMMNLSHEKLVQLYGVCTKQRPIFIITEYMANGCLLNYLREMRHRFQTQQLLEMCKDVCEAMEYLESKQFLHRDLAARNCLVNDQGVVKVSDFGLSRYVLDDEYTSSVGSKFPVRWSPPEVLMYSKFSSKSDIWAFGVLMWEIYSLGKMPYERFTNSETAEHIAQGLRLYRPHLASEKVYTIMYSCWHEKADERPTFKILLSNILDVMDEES
# Chain of HCK (P08631 whole entry): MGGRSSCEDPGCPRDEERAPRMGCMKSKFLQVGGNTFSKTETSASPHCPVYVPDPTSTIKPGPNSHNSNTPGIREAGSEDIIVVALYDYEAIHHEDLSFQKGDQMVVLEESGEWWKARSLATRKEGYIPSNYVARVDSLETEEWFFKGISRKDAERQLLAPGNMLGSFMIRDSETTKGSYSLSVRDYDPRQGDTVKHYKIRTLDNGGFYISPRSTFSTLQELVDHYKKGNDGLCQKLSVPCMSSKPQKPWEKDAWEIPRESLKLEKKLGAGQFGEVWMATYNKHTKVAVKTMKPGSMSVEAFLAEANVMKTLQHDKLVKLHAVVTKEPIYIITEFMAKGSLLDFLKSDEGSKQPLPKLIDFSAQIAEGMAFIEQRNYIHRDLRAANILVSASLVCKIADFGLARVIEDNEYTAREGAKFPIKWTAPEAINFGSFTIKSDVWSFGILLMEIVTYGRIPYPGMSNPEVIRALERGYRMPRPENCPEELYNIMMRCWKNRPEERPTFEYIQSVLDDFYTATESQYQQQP
# Chain of RIPK1 (Q13546 whole entry): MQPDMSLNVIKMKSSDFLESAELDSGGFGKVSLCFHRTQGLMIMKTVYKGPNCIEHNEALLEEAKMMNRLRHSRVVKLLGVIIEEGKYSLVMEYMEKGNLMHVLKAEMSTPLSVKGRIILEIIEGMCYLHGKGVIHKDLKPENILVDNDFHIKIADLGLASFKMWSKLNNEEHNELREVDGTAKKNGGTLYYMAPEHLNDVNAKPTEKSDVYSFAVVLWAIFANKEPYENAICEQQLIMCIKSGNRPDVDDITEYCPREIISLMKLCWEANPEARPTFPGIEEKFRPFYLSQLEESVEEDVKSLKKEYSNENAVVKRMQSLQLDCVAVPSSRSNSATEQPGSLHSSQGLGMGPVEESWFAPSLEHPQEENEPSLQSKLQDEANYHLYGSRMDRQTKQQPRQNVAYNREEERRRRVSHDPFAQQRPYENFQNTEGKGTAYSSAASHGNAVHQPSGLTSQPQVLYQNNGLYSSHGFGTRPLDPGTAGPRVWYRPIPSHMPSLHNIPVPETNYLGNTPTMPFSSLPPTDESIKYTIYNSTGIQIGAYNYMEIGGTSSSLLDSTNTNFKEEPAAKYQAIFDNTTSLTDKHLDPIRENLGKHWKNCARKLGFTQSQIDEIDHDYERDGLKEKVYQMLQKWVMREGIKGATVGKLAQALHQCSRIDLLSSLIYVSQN
# Chain of RET(V804L) (P07949 whole entry V804L): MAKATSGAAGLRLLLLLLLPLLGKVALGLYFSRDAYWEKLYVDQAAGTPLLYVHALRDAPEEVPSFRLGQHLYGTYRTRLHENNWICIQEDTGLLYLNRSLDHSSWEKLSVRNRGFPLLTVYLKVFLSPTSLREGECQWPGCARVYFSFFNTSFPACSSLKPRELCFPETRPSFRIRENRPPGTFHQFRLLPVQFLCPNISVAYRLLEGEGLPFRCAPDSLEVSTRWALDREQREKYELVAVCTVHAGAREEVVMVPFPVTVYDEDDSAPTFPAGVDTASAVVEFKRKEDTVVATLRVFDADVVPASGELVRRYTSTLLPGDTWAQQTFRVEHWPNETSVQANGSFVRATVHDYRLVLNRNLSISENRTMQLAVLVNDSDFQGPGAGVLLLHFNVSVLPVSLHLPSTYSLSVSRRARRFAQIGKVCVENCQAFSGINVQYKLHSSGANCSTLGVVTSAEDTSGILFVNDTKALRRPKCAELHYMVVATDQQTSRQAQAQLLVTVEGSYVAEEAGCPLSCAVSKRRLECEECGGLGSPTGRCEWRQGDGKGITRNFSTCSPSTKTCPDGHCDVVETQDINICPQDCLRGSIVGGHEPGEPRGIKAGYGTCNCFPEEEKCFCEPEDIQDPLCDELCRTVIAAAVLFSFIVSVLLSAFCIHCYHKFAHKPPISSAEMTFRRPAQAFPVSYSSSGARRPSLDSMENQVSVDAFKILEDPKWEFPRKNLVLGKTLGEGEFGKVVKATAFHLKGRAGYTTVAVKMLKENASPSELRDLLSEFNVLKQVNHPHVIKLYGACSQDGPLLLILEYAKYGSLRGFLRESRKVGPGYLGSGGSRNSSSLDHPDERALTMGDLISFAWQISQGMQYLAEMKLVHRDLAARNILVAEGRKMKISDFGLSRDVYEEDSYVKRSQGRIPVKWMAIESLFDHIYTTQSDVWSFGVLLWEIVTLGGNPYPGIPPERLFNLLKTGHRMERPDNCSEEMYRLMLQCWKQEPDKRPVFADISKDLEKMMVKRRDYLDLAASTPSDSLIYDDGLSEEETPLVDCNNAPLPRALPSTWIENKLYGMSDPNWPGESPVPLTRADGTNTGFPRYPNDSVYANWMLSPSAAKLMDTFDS
# Chain of GRK7 (Q8WTQ7 whole entry): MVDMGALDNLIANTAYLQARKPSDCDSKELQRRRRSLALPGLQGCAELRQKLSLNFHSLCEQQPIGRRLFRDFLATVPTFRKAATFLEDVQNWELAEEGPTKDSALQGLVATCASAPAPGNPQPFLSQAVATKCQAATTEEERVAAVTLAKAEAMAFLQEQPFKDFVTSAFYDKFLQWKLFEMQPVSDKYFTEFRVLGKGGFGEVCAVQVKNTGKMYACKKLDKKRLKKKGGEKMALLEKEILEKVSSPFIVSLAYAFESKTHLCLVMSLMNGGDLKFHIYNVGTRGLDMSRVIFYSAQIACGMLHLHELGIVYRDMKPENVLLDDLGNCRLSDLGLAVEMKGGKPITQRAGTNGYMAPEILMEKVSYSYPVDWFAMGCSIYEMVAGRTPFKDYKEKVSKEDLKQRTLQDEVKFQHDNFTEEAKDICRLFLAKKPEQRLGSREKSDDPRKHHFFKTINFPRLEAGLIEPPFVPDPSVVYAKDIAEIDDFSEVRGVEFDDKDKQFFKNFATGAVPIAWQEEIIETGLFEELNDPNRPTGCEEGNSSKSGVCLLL
# T7 sequence (Q02779 whole entry): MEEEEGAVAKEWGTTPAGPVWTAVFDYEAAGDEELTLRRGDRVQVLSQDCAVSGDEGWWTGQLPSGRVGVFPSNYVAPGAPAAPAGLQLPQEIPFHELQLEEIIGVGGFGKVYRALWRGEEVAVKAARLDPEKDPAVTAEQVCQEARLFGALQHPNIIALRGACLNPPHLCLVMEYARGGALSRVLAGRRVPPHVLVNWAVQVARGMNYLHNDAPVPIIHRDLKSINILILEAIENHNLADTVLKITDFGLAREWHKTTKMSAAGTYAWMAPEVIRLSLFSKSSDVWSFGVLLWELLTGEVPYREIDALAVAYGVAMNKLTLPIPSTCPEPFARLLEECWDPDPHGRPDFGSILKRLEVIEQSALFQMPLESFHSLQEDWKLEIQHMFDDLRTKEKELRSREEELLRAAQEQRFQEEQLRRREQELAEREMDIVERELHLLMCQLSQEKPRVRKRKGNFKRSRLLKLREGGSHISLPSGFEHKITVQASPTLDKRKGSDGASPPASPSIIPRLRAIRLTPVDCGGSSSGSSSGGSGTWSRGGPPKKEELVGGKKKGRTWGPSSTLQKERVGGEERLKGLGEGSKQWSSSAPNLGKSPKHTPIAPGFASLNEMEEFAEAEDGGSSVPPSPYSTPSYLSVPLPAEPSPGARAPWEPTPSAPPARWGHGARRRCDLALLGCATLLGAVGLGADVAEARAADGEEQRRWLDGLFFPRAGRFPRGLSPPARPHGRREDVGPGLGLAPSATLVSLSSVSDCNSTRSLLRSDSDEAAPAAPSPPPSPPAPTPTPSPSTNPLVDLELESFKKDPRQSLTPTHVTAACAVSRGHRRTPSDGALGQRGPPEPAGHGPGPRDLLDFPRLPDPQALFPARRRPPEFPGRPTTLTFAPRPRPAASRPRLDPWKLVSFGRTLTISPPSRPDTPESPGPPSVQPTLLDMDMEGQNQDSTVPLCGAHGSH
# Chain of CSK (P41240 whole entry): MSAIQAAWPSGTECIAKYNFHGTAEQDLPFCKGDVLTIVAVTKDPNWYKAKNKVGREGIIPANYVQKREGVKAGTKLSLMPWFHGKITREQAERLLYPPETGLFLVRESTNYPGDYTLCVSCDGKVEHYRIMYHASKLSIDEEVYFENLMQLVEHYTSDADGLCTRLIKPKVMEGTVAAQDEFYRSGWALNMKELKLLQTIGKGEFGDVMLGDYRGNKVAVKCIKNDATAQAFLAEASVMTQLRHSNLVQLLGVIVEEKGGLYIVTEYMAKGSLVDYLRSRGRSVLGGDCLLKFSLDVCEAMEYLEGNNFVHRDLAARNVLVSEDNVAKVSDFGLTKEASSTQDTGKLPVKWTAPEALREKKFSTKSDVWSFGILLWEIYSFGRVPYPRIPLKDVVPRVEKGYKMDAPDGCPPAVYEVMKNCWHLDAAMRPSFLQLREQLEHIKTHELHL
smiles,measurement,setting,value
Cc1cn(-c2cc(NC(=O)c3ccc4c(c3)CN(c3cncnc3)C[C@@H]4C)cc(C(F)(F)F)c2)cn1 [Compound 6j],remaining activity at 1 µM,S6K1,100%
same,remaining activity at 1 µM,JNK3,100%
same,remaining activity at 1 µM,BLK,68%
same,remaining activity at 1 µM,EGFR,94%
same,remaining activity at 1 µM,"GCN2(Kin.Dom.2,S808G)",100%
same,remaining activity at 1 µM,TIE1,74%
same,remaining activity at 1 µM,RET(V804L),94%
same,remaining activity at 1 µM,RIOK1,100%
same,remaining activity at 1 µM,FRK,63%
same,remaining activity at 1 µM,BMPR1A,93%
same,remaining activity at 1 µM,RIPK1,98%
same,remaining activity at 1 µM,SRPK3,93%
same,remaining activity at 1 µM,CSK,92%
same,remaining activity at 1 µM,SGK,100%
same,remaining activity at 1 µM,CSNK2A1,100%
same,remaining activity at 1 µM,EPHB6,100%
same,remaining activity at 1 µM,GRK7,94%
same,remaining activity at 1 µM,MKNK2,100%
same,remaining activity at 1 µM,CAMKK1,64%
same,remaining activity at 1 µM,PIK3CA(H1047L),100%
same,remaining activity at 1 µM,BMPR1B,100%
same,remaining activity at 1 µM,CAMK1D,71%
same,remaining activity at 1 µM,HCK,86%
same,remaining activity at 1 µM,CSF1R,96%
same,remaining activity at 1 µM,LKB1,77%
same,remaining activity at 1 µM,LRRK2(G2019S),100%
same,remaining activity at 1 µM,ERK3,96%
same,remaining activity at 1 µM,MET(M1250T),84%
same,remaining activity at 1 µM,MLK2,98%
same,remaining activity at 1 µM,HIPK3,86%
same,remaining activity at 1 µM,PDGFRB,82%
same,remaining activity at 1 µM,AKT2,100%
same,remaining activity at 1 µM,ERN1,100%
same,remaining activity at 1 µM,PIK3CA(M1043I),93%
same,remaining activity at 1 µM,BTK,100%

# — paper PMC5053573, “Structure-Based Design of Tetrahydroisoquinoline-7-carboxamides as Selective Discoidin Domain Receptor 1 (DDR1) Inhibitors” (Journal of Medicinal Chemistry, 2016)
